Data: BindingDB's records for patent US20250313563 (The Broad Institute, 2025)
Where “and” joins values, the source holds several entries; their conditions need not be identical. Identical values can stand only once.

Target: Glycogen synthase kinase-3 beta (Homo sapiens, UniProt P49841)
Assay: TR-FRET Assay
Description: The assay was performed in a white, 384 well, low volume, flat bottom plate (Grenier). […] The kinase activity was quenched with 2 μL of 250 mM EDTA. A 10 μL volume of 40 nM Strepavidin-d2, 2 nM Tb2+-pSer641 antibody in TR-FRET Detection Buffer (Invitrogen) was then added.

Sequence of Glycogen synthase kinase-3 beta (P49841 whole entry): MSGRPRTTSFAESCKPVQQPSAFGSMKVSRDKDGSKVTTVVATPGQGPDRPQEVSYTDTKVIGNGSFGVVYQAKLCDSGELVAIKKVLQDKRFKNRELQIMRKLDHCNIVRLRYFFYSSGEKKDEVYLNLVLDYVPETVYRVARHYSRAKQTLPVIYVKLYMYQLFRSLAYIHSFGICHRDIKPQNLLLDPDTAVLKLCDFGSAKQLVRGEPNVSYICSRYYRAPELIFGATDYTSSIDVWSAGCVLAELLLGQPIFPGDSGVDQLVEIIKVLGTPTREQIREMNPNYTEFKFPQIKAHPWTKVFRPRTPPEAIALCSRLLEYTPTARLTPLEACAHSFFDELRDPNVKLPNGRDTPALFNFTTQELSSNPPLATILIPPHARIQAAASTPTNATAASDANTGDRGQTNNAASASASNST

CC[C@@]1(c2cccc(S(=O)(=O)C(C)C)c2)C2=CN=NC2NC2=C1C(=O)CC(C)(C)C2 (stereo not given in full) [US20250313563, Compound 913135]
IC50: 100 to 1000 nM

CC[C@]1(c2cccc(-c3c(F)cncc3OC)c2)C2=CN=NC2NC2=C1C(=O)CC(C)(C)[C@H]2F (stereo not given in full) [US20250313563, Compound 948545]
IC50: 100 to 1000 nM

CC[C@@]1(c2cccc(OC)c2)C2=C(CC(C)(C)CC2=O)NC2N=NC(C(=O)OC)=C21 (stereo not given in full) [US20250313563, Compound 901480]
IC50: 100 to 1000 nM

CC[C@@]1(c2cccc(-c3cc(C)nn3C)c2)C2=CN=NC2NC2=C1C(=O)CC(C)(C)C2 (stereo not given in full) [US20250313563, Compound 946097]
IC50: 100 to 1000 nM

CC[C@]1(c2cccc(-c3cc(C)ncc3F)c2)C2=CN=NC2NC2=C1C(=O)NC(C)(C)C2 (stereo not given in full) [US20250313563, Compound 947804]
IC50: 100 to 1000 nM

CC[C@]1(c2cccc(Nc3ncccn3)c2)C2=CN=NC2NC2=C1C(=O)CC(C)(C)C2 (stereo not given in full) [US20250313563, Compound 945943]
IC50: 100 to 1000 nM

CC(C)(C)CC1=C2C(N=N1)NC1=C(C(=O)CC(C)(C)C1)[C@]21CCc2c(F)cccc21 (stereo not given in full) [US20250313563, Compound 791256]
IC50: 1000 to 5000 nM

CC[C@@]1(c2cccc(C(F)(F)F)c2)C2=CN=NC2NC2=C1C(=O)N(CC(F)(F)F)CC2 (stereo not given in full) [US20250313563, Compound 912206]
IC50: 100 to 1000 nM

CC[C@]1(c2cccc(-c3ccncc3C)c2)C2=CN=NC2NC2=C1C(=O)NC(C)(C)C2 (stereo not given in full) [US20250313563, Compound 947576]
IC50: 1000 to 5000 nM

CC[C@]1(c2cccc(-c3c(F)cncc3OC)c2)C2=CN=NC2NC2=C1C(=O)CC(C)(C)[C@@H]2F (stereo not given in full) [US20250313563, Compound 948546]
IC50: 100 to 1000 nM

CC[C@]1(c2cccc(N(C)c3ccnc(OC)c3)c2)C2=CN=NC2NC2=C1C(=O)CC(C)(C)C2 (stereo not given in full) [US20250313563, Compound 932642]
IC50: 100 to 1000 nM

CC[C@]1(c2cccc(-c3ccnc(C)c3)c2)C2=CN=NC2NC2=C1C(=O)N(C)C(C)(C)C2 (stereo not given in full) [US20250313563, Compound 949004]
IC50: 100 to 1000 nM

CCN(c1cccc([C@@]2(CC)C3=CN=NC3NC3=C2C(=O)CC(C)(C)C3)c1)c1ncccn1 (stereo not given in full) [US20250313563, Compound 947333]
IC50: 100 to 1000 nM

CC[C@]1(c2cccc(-c3ccnc(C)c3C)c2)C2=CN=NC2NC2=C1C(=O)CC(C)(C)C2 (stereo not given in full) [US20250313563, Compound 943516]
IC50: 1000 to 5000 nM

CC1(C)CC(=O)C2=C(C1)NC1=C(CN=N1)[C@]21COC2(CN(C(=O)C3CCOCC3)C2)C1 [US20250313563, Compound 945407]
IC50: 100 to 1000 nM

CC[C@]1(c2cccc(Br)c2)C2=CN=NC2NC2=C1C(=O)[C@H](F)C(C)(C)C2 (stereo not given in full) [US20250313563, Compound 835314]
IC50: 100 to 1000 nM

CCC1(c2cccc(C(F)(F)F)c2)C2=C(N=NC2)NC2=C1C(=O)N(C)C2C (stereo not given) [US20250313563, Compound 911957]
IC50: 100 to 1000 nM

CC[C@@]1(c2cccc(C(F)(F)F)c2)C2=C(CCN(c3cnc(OC)nc3)C2=O)NC2N=NC(C)=C21 (stereo not given in full) [US20250313563, Compound 949126]
IC50: 100 to 1000 nM

CC[C@]1(c2cccc(COC)c2)C2=CN=NC2NC2=C1C(=O)CC(C)(C)C2 (stereo not given in full) [US20250313563, Compound 810360]
IC50: 100 to 1000 nM

CC1(C)CC(=O)C2=C(C1)NC1=C(CN=N1)[C@]21CCN(S(=O)(=O)c2ccccc2)C1 [US20250313563, Compound 951787]
IC50: 100 to 1000 nM

CC[C@]1(c2cccc(-c3ccncc3C)c2)C2=CN=NC2NC2=C1C(=O)NC1(CCC1)C2 (stereo not given in full) [US20250313563, Compound 948523]
IC50: 100 to 1000 nM

CC[C@@]1(c2cccc(-c3cnn(Cc4ccc(C(F)(F)F)cc4)c3)c2)C2=CN=NC2NC2=C1C(=O)NC(C)(C)C2 (stereo not given in full) [US20250313563, Compound 951849]
IC50: 100 to 1000 nM

CC[C@]1(c2cccc(S(C)(=O)=O)c2)C2=CN=NC2NC2=C1C(=O)CC(C)(C)C2 (stereo not given in full) [US20250313563, Compound 826718]
IC50: < 100 nM and 100 to 1000 nM

CC[C@]1(c2cccc(-c3cc(C)ncc3C)c2)C2=C(CC(C)(C)CC2=O)NC2N=NC(C(F)(F)F)=C21 (stereo not given in full) [US20250313563, Compound 947363]
IC50: 100 to 1000 nM

CC[C@@]1(c2cccc(-c3ccnn3C)c2)C2=CN=NC2NC2=C1C(=O)N[C@](C)(COC)C2 (stereo not given in full) [US20250313563, Compound 947905]
IC50: 100 to 1000 nM

COC(=O)C1(c2ccccc2)CC2(C1)C1=C(N=NC1)NC1=C2C(=O)CC(C)(C)C1 (stereo not given) [US20250313563, Compound 942344]
IC50: 100 to 1000 nM

CC[C@]1(c2cccc(C(F)(F)F)c2)C2=CN=NC2NC2=C1C(=O)N(c1ccn(C)n1)CC2 (stereo not given in full) [US20250313563, Compound 949835]
IC50: 100 to 1000 nM

CC[C@@]1(c2cccc(-c3cn(C)nc3C)c2)C2=CN=NC2NC2=C1C(=O)N(C)C(C)(C)C2 (stereo not given in full) [US20250313563, Compound 949005]
IC50: 1000 to 5000 nM

Cc1ccc(C(=O)N2CC3(C2)C[C@]2(CO3)C3=C(N=NC3)NC3=C2C(=O)CC(C)(C)C3)cc1C [US20250313563, Compound 948038]
IC50: < 100 nM and 100 to 1000 nM

CC[C@@]1(c2cccc(N(C)c3ncccn3)c2)C2=C(CC(C)(C)NC2=O)NC2N=NC(C(F)(F)F)=C21 (stereo not given in full) [US20250313563, Compound 949181]
IC50: < 100 nM and 100 to 1000 nM

CC[C@]1(c2cccc(-c3ccncc3OC)c2)C2=CN=NC2NC2=C1C(=O)CC(C)(C)C2 (stereo not given in full) [US20250313563, Compound 945481]
IC50: 100 to 1000 nM

CC[C@]1(c2cccc(-c3ccnn3C)c2)C2=CN=NC2NC2=C1C(=O)NC1(CCOCC1)C2 (stereo not given in full) [US20250313563, Compound 948516]
IC50: 100 to 1000 nM

CN1C[C@@]2(C3=C(CC(C)(C)CC3=O)NC3N=NC(CC(C)(C)C)=C32)c2ccccc21 (stereo not given in full) [US20250313563, Compound 125979]
IC50: 1000 to 5000 nM

CC[C@]1(c2cccc(C(F)(F)F)c2)C2=C(N=NC2)NC2=C1C(=O)N(C)[C@@H]2C [US20250313563, Compound 913454]
IC50: 100 to 1000 nM

CC1(C)CC(=O)C2=C(C1)NC1=C(CN=N1)[C@@]21COC2(CN(C(=O)C3(F)CCC3)C2)C1 [US20250313563, Compound 947736]
IC50: 100 to 1000 nM

CC[C@]1(c2cccc(-c3cnn(C)c3)c2)C2=CN=NC2NC2=C1C(=O)C[C@H](C)C2 (stereo not given in full) [US20250313563, Compound 823720]
IC50: 100 to 1000 nM

CC[C@@]1(c2cccc(-c3cnn(C(C)(C)C)c3)c2)C2=CN=NC2NC2=C1C(=O)NC(C)(C)C2 (stereo not given in full) [US20250313563, Compound 949112]
IC50: 100 to 1000 nM and > 5000 nM

CC[C@@]1(c2cccc(-c3cnn(C)c3)c2)C2=C(CC(C)(C)NC2=O)NC2N=NC(F)=C21 (stereo not given in full) [US20250313563, Compound 949011]
IC50: 100 to 1000 nM

CC[C@]1(c2cccc(-c3ccncc3C)c2)C2=CN=NC2NC2=C1C(=O)CC(C)(C)C2 (stereo not given in full) [US20250313563, Compound 943990]
IC50: 100 to 1000 nM

CC[C@@]1(c2cccc(C)c2)C2=C(CC(C)(C)CC2=O)NC2N=NC(C(F)(F)F)=C21 (stereo not given in full) [US20250313563, Compound 883873]
IC50: 100 to 1000 nM

CC[C@]1(c2cccc(C(F)(F)F)c2)C2=CN=NC2NC2=C1C(=O)N(c1cccc(C)c1)CC2 (stereo not given in full) [US20250313563, Compound 949040]
IC50: 100 to 1000 nM

CC[C@]1(c2cccc(C(F)(F)F)c2)C2=CN=NC2NC2=C1C(=O)N(c1ccccc1C)CC2 (stereo not given in full) [US20250313563, Compound 949128]
IC50: 100 to 1000 nM

CC(C)(C)CC1N=NC2=C1[C@@]1(CCc3cccc(F)c31)C1=C(CC(C)(C)CC1=O)N2 (stereo not given in full) [US20250313563, Compound 801351]
IC50: 100 to 1000 nM

CC[C@@]1(c2cccc(C(F)F)c2)C2=C(CC(C)(C)NC2=O)NC2N=NC(C(F)(F)F)=C21 (stereo not given in full) [US20250313563, Compound 951948]
IC50: 100 to 1000 nM

CC[C@@]1(c2cccc(C(F)(F)F)c2)C2=CN=NC2NC2=C1C(=O)NC[C@@H]2C (stereo not given in full) [US20250313563, Compound 945382]
IC50: 100 to 1000 nM

CCCS(=O)(=O)c1cccc([C@@]2(CC)C3=CN=NC3NC3=C2C(=O)CC(C)(C)C3)c1 (stereo not given in full) [US20250313563, Compound 929447]
IC50: < 100 nM and 100 to 1000 nM

CC[C@]1(c2cccc(-c3cc(C)nn3C)c2)C2=CN=NC2NC2=C1C(=O)NC(C)(C)C2 (stereo not given in full) [US20250313563, Compound 943966]
IC50: 100 to 1000 nM

CC1(C)CC(=O)C2=C(C1)NC1N=NC(C3(C(F)(F)F)CC3)=C1[C@@]21CCc2c(F)cccc21 (stereo not given in full) [US20250313563, Compound 816839]
IC50: 1000 to 5000 nM

CC[C@]1(c2cccc(Cl)c2)C2=C(CC(C)(C)CC2=O)NC2N=NC(Br)=C21 (stereo not given in full) [US20250313563, Compound 801314]
IC50: < 100 nM and 100 to 1000 nM

CC[C@]1(c2cccc(C(F)(F)F)c2)C2=C(CC(C)(C)CC2=O)NC2N=NC(Br)=C21 (stereo not given in full) [US20250313563, Compound 810466]
IC50: 100 to 1000 nM

CC[C@@]1(c2cccc(S(=O)(=O)C(C)C)c2)C2=C(CC(C)(C)NC2=O)NC2N=NC(C)=C21 (stereo not given in full) [US20250313563, Compound 947876]
IC50: 100 to 1000 nM

CC[C@]1(c2cccc(C(F)(F)F)c2)C2=C(N=NC2)NC2=C1C(=O)N(C)[C@H]2C [US20250313563, Compound 913473]
IC50: 100 to 1000 nM

CC(C)(C)CC1N=NC2=C1[C@@](C)(c1cccc(N3C=COCC3)c1)C1=C(CC(C)(C)CC1=O)N2 (stereo not given in full) [US20250313563, Compound 126399]
IC50: > 5000 nM

CC[C@]1(c2cccc(C(F)(F)F)c2)C2=CN=NC2NC2=C1C(=O)N(c1cnn(C)c1)CC2 (stereo not given in full) [US20250313563, Compound 949270]
IC50: 100 to 1000 nM

CC[C@]1(c2cccc(-c3c(C)cncc3C)c2)C2=CN=NC2NC2=C1C(=O)CC(C)(C)C2 (stereo not given in full) [US20250313563, Compound 947658]
IC50: < 100 nM and 100 to 1000 nM
